Laboratory results reported in US20040121029A1, “Antiulcer herbal composition(s)” (Council of Scientific & Industrial Research, priority 2002, published 2004).
Marks after values point to notes of the source that are not given here.

What was measured:
[1] = test system: cold restraint stress (CRS) - induced gastric ulcers; assay: Cold restraint stress (CRS) - induced ulcers in rats; assay type: in vivo; conditions: dose 50
Protocol: 3. Cold restraint stress—induced ulcers: Rats were strapped on a wooden plank and kept them at 4-6° C. for 2 hours. The animals were then sacrificed by cervical dislocation and ulcers were scored on the dissected stomach.

[2] = test system: pylorus ligation (PL) - induced gastric ulcers; assay: Pylorus ligation (PL) - induced ulcers in rats; assay type: in vivo; conditions: dose 50
Protocol: 4. Pylorus ligated induced ulcers: Animals were anaesthetized using pentobarbitione (35 mg/kg, i.p.), the abdomen was opened and pylorus ligation was done without causing any damage to its blood supply. The stomach was replaced carefully and the abdomen wall was closed in 2 layers with interrupted sutures. The animals were deprived of water during postoperative period. After 4 hours stomach were dissected out and contents were collected and ulcer index was calculated.

For CNC(=C[N+](=O)[O-])NCCSCc1ccc(CN(C)C)o1 [Ranitidine], the “CRS - induced ulcers % Curative Ratio” value [1] was 79.68%, the “CRS - induced ulcers Ulcer Index” value ([1]; mean ± SEM, six rats) was 5.2 ± 1.1^c and the “PL - induced ulcers % Curative Ratio” value [2] was 64.82%. The “PL - induced ulcers Ulcer Index” value ([2]; mean ± SEM, six rats) was 5.1 ± 1.3^b.
